# Experimental data: paper PMC7932521, “2-aminobenzimidazoles for leishmaniasis: From initial hit discovery to in vivo profiling” (PLoS Neglected Tropical Diseases, 2021)
# Read-outs that look alike come from different tables or passages of the source.
# Legend:
# [1] = Experimental distribution coefficient (eLogD); type: physicochemical; details: for chromatographic logD: reverse stationary phase HPLC column (Ascentis RP-Amide)
# Method in brief: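 Lipophilicity derived from retention time on an Ascentis RP-Amide reverse-phase column by LC-MS/MS, compounds at 1.0 μg/mL with internal standard; mobile phases 5% methanol in 10mM ammonium acetate pH 7.4 and 100% methanol. LogD calculated from a linear calibration of eight standards' retention times against known LogD.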
# 5-HT1A = molecular target: T1, 5-HT1A (Homo sapiens, UniProt P08908); assay: Bioprofiling 6pt Ag 5-HT1A CHO; type: cell-based; details: agonist readout
# T1 construct: expressed in transfected cells; host or cells: CHO
# T1 sequence (P08908 1-422): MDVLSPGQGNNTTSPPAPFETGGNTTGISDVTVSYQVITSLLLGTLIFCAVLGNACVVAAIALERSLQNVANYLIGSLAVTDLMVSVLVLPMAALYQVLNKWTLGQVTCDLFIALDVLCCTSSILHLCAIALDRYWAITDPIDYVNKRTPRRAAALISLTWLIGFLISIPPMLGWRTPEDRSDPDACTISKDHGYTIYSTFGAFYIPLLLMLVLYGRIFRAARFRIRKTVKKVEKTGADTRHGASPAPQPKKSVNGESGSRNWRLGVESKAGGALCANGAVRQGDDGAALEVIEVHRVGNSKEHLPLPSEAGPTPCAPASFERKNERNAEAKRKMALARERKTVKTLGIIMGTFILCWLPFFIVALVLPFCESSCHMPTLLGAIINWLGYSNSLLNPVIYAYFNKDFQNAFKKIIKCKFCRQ
# Procedure: (§1) The compounds were evaluated across a panel of 20 liability targets (37 functional assays) which included functional cell-based GPCRs and ion channels in both agonist and antagonist readout, measuring calcium flux and biochemical functional assays for nuclear hormone receptors and phosphodiesterases using TR-FRET format, in a 6 point 1:3 dilution dose series (maximum final concentration of 10 μM).
# ETB = molecular target: T2, ETB (Homo sapiens, UniProt P24530); assay: Bioprofiling 6pt Ag ETB CHO; type: cell-based; details: agonist readout
# T2 construct: expressed in transfected cells; host or cells: CHO
# T2 sequence (P24530 27-442): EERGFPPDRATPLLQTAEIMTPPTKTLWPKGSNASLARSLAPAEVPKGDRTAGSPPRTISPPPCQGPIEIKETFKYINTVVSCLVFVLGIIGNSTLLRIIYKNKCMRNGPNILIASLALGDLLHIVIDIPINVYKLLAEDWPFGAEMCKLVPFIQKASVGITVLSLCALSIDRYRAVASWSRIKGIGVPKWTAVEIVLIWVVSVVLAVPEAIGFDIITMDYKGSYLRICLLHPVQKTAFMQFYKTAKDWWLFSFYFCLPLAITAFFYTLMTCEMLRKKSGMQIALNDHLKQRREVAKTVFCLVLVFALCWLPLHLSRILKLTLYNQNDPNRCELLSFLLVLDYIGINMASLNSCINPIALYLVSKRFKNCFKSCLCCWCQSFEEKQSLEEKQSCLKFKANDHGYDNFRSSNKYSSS
# Procedure: as §1
# Cav1.2 (L-type) = Cav1.2 (L-type) (Mus musculus, UniProt Q01815); assay: Bioprofiling 6pt Antag Cav1.2 (L-type) ND7/23; type: cell-based; details: mouse/rat, ND7/23 cells; antagonist readout vs KCl
# Procedure: as §1
# Plasma stability = type: in vitro ADME, mouse; details: for Mouse plasma stability: % remaining after 6h; for Plasma Stability: S1 Data
# Procedure: Pooled plasma was thawed in a water bath at 37°C and centrifuged at 4,000 rpm for 5 min to remove any clots. Plasma solution was prepared by adding PBS (pH 7.4) in a 1:1 ratio. It was not necessary to adjust the pH of the final plasma solution. Plasma:PBS and test compound solutions were added to the incubation plate at a final concentration of 2 μM. The plate was incubated in a shaker at 37°C and 50 rpm. Samples were removed (25 μL) from each well of the incubation plate at multiple timepoints and added to a plate containing 100 μL of quench solution (200 ng/mL tolbutamide in 50% acetonitrile/methanol) to precipitate protein. The quenched aliquots were centrifuged at 4000 rpm for 10 min at 5°C. An aliquot of supernatant was transferred from each well to a plate for analysis by LC-MS/MS. Results were calculated as the percentage of remaining parent compound in plasma after incubation.
# CHO = assay: Bioprofiling 6pt Ag CHO Hamster; type: cell-based; details: agonist readout
# Procedure: as §1
# D2L = molecular target: T3, D2L (Homo sapiens, UniProt P14416); assay: Bioprofiling 6pt Ag D2L CHO; type: cell-based; details: agonist readout
# T3 construct: expressed in transfected cells; host or cells: CHO
# Procedure: as §1
# PDE3A = PDE3A (Homo sapiens, UniProt Q14432); assay: Bioprofiling 6pt Antag PDE3A; type: biochemical; details: substrate cAMP
# Procedure: as §1
# Kv11.1 (hERG) = molecular target: T4, Kv11.1 (hERG) (Homo sapiens, UniProt Q12809); assay: hERG thallium influx assay; type: cell-based; details: KCl, read-out: Bioprofiling 6pt Thallium Influx Antag Kv11.1 (hERG) CHO Human IC50
# T4 construct: host or cells: T-REx-CHO, doxycycline-induced
# Procedure: This was adapted from the literature method;[28] briefly, hERG functional activity was measured in an inducible hERG T-RExTM-CHO Cell line (ThermoFisher #K1237) using thallium influx as a surrogate indicator of potassium ion channel activity. Thallium enhances the fluorescent signal of BTC-AM dye (ThermoFisher #B6791). 384 well plates were seeded at 15,000 cells/well with doxycycline hyclate, included to induce expression of the hERG channel, and grown for 48 hours. Media was removed and cells were loaded with 4 μM dye for 90 mins in a low potassium buffer, dye was then removed and compound added to the cells in a high potassium buffer in a 6 point 1:3 dilution dose series (maximum final concentration of 30 μM). After 30 mins of compound incubation, channel activity was recorded upon addition of thallium buffer using a Tetra plate reader. The slope of the kinetic read was used to calculate channel activity.
# [2] = test system: PMM (Primary Mouse Macrophages); assay: Cytotoxicity on primary peritoneal mouse macrophages; type: cell-based; details: Mus musculus, Macrophage
# Method in brief: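 Host cells were peritoneal macrophages from Swiss mice, harvested after 2 days of starch stimulation and kept in RPMI-1640 with 5% FCS at 37 °C, 5% CO2. Compounds were tested in 4-fold dilutions from 64 μM, with final DMSO below 1%.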
# [3] = read-out: IC-50 PMM (Primary Mouse Macrophages)
# Chain of PDE3A (Q14432 whole entry): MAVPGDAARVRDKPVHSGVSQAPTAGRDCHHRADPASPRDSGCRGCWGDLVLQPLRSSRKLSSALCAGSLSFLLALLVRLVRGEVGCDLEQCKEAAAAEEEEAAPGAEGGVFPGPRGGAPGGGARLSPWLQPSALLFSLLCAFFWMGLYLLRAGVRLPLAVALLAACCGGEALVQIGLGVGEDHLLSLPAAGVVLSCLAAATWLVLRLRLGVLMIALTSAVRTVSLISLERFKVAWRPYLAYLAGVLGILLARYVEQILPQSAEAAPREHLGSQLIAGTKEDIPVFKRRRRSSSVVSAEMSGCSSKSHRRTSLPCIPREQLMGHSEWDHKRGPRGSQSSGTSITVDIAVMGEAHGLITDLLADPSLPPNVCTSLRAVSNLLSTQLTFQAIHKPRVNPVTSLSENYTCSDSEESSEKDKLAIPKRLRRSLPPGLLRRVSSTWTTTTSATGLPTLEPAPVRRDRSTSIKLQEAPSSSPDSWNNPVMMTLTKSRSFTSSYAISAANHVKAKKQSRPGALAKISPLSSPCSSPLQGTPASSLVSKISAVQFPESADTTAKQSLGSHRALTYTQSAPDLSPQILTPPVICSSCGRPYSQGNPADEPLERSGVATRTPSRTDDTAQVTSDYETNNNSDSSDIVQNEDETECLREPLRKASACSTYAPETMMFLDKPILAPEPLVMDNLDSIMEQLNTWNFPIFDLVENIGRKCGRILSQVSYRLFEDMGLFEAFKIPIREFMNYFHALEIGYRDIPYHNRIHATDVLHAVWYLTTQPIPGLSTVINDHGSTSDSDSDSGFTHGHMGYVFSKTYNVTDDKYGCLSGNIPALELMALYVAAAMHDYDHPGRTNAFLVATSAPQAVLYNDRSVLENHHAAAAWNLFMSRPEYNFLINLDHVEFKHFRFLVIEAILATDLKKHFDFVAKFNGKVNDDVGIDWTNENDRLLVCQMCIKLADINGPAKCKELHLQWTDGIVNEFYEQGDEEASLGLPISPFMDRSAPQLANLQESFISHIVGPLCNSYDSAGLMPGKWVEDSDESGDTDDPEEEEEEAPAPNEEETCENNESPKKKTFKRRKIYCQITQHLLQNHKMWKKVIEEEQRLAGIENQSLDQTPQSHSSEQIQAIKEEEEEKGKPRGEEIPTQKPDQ
# T4 sequence (Q12809 whole entry): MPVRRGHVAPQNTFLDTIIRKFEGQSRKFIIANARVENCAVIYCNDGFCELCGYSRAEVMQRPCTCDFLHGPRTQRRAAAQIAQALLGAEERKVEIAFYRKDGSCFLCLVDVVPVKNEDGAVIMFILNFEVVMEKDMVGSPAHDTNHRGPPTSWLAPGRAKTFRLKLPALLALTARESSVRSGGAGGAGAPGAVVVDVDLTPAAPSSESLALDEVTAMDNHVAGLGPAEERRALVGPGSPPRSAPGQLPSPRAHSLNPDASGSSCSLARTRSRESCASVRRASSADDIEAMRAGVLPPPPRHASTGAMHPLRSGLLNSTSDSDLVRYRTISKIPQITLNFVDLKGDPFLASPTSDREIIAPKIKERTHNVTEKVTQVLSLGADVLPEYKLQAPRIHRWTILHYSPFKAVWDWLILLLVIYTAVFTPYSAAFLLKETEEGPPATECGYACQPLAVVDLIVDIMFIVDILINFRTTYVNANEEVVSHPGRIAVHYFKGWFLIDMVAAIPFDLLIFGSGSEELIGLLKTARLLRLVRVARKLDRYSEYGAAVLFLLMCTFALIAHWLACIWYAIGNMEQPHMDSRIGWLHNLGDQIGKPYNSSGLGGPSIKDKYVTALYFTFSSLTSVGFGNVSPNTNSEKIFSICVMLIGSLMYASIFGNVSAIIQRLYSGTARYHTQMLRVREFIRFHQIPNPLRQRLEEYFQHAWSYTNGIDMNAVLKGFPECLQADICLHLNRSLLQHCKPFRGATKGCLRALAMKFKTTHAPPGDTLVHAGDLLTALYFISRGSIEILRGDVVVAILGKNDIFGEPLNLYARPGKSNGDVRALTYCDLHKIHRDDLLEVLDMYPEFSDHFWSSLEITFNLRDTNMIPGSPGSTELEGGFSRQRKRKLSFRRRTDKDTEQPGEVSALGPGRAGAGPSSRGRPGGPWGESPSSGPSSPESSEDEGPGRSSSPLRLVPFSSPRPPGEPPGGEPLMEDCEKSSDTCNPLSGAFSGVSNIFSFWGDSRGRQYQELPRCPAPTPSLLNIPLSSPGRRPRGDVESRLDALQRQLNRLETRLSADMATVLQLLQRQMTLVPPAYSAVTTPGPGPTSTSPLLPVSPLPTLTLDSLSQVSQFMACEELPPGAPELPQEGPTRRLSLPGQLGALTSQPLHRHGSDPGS
# T3 sequence (P14416 whole entry): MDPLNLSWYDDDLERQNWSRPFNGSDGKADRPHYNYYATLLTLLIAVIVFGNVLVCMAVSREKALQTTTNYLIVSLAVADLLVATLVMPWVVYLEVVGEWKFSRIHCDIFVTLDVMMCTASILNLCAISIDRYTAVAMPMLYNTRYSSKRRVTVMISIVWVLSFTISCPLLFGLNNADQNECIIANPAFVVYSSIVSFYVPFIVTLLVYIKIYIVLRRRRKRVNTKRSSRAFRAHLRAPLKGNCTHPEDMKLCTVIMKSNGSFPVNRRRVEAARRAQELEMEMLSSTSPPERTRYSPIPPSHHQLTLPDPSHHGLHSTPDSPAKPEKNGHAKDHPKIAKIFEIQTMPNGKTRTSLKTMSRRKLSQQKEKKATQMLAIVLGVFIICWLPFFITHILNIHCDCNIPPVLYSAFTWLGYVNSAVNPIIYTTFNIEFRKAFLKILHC
# Chain of Cav1.2 (L-type) (Q01815 whole entry): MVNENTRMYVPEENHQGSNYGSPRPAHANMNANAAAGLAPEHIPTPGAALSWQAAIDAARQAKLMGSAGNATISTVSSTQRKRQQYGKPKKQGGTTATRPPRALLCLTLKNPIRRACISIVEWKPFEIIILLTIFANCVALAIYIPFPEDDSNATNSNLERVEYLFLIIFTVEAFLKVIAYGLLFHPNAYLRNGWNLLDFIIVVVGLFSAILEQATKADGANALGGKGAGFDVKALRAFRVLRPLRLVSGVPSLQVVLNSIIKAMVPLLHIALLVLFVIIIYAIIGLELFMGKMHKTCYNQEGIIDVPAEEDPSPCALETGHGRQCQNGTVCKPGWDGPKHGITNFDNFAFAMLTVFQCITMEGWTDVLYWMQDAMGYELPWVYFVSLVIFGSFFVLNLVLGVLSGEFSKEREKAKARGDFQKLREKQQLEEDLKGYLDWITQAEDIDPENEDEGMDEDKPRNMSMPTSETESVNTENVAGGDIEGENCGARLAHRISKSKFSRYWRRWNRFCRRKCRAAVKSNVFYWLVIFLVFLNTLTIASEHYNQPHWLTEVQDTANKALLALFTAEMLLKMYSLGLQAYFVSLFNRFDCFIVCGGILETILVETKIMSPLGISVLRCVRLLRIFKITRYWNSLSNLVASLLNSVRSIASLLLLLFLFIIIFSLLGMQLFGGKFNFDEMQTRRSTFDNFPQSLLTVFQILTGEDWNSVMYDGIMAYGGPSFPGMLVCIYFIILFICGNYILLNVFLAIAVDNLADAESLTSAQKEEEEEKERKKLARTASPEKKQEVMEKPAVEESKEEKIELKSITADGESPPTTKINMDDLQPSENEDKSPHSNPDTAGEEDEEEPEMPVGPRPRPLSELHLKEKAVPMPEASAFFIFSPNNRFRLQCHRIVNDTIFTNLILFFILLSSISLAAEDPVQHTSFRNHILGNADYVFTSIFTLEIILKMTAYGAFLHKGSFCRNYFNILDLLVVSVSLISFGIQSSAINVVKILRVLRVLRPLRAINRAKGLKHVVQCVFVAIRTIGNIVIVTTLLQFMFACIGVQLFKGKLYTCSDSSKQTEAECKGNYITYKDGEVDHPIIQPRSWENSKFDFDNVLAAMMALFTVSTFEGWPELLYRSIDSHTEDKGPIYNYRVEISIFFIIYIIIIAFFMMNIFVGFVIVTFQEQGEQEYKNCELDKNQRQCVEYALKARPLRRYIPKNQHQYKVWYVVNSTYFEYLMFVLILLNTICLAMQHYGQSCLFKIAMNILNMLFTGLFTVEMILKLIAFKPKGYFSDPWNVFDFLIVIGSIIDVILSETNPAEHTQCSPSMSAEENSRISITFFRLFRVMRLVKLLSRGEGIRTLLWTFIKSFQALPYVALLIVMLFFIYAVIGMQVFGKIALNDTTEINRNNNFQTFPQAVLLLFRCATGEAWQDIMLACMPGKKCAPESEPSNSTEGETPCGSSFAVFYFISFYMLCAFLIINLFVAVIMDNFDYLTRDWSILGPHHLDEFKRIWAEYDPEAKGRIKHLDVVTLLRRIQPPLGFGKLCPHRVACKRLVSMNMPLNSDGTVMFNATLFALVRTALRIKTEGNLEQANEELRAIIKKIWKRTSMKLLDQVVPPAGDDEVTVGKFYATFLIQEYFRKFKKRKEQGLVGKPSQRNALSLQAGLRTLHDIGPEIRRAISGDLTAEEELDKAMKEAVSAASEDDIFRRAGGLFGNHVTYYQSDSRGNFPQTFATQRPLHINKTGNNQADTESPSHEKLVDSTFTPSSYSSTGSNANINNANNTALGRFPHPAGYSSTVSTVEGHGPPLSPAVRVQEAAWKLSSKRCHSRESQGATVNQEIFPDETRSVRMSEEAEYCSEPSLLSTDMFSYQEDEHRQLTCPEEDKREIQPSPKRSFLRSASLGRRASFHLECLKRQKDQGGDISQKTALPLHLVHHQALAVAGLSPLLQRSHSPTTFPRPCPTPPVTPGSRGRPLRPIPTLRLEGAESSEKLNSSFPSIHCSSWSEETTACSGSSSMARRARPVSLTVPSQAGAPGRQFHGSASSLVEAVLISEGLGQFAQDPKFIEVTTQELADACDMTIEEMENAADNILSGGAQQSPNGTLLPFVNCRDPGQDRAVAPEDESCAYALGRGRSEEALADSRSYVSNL
structure (smiles),measurement,setting,value
"Cn1nccc1C(=O)Nc1nc2ccc(C#N)cc2n1CC(C)(C)C [Compound 29, O=C(Nc1n(CC(C)(C)C)c(c2n1)cc(C#N)cc2)c3n(C)ncc3]",eLogD,[1]; S1 Data,3.39
same,chromatographic logD,"[1]; experimental, pH 7.4",3.4
same,EC50,5-HT1A,> 10 µM
same,EC50,ETB,> 10 µM
same,IC50,Cav1.2 (L-type),> 10 µM
same,Mouse plasma stability,Plasma stability,99.8%
same,Plasma Stability,Plasma stability,99.80%
same,EC50,CHO,> 10 µM
same,EC50,D2L,> 10 µM
same,IC50,PDE3A,> 10 µM
same,IC50,Kv11.1 (hERG),> 30 µM
same,IC50,[2]; [3],49.3 µM
same,IC50,[2]; read-out: PMM IC50,27.4 µM
"Cn1nccc1C(=O)Nc1nc2ccc(C#N)cc2n1CC(F)(F)F [Compound 30, O=C(c1ccnn1C)Nc2nc(ccc(C#N)c3)c3n2CC(F)(F)F]",eLogD,[1]; S1 Data,2.70
same,chromatographic logD,"[1]; experimental, pH 7.4",2.7
same,EC50,5-HT1A,> 10 µM
same,EC50,ETB,> 10 µM
same,IC50,Cav1.2 (L-type),> 10 µM
same,Mouse plasma stability,Plasma stability,107%
same,Plasma Stability,Plasma stability,107%
same,EC50,CHO,> 10 µM
same,EC50,D2L,> 10 µM
same,IC50,PDE3A,> 10 µM
same,IC50,Kv11.1 (hERG),> 30 µM
same,IC50,[2]; read-out: PMM IC50,32 µM
"Cn1nc(C(F)(F)F)cc1C(=O)Nc1nc2ccc(C#N)cc2n1CC(F)(F)F [Compound 39, O=C(c1cc(C(F)(F)F)nn1C)Nc2nc(ccc(C#N)c3)c3n2CC(F)(F)F]",eLogD,[1]; S1 Data,3.01
same,chromatographic logD,"[1]; experimental, pH 7.4",3
same,EC50,5-HT1A,> 10 µM
same,EC50,ETB,> 10 µM
same,IC50,Cav1.2 (L-type),> 10 µM
same,Mouse plasma stability,Plasma stability,111%
same,Plasma Stability,Plasma stability,111%
same,EC50,CHO,> 10 µM
same,EC50,D2L,> 10 µM
same,IC50,PDE3A,3.32 µM
same,IC50,Kv11.1 (hERG),> 30 µM
same,IC50,[2]; [3],34.3 µM
same,IC50,[2]; read-out: PMM IC50,1.26 µM
"COc1ccc(C(=O)Nc2nc3ccc(C#N)cc3n2CC(F)(F)F)cn1 [Compound 43, O=C(c1ccc(OC)nc1)Nc2nc(ccc(C#N)c3)c3n2CC(F)(F)F]",eLogD,"[1]; experimental, pH 7.4",4.9
same,chromatographic logD,"[1]; pH 7.4, S1 Data",4.85
same,EC50,5-HT1A,> 10 µM
same,EC50,ETB,> 10 µM
same,IC50,Cav1.2 (L-type),> 10 µM
same,Plasma Stability,Plasma stability,92.20%
same,EC50,CHO,> 10 µM
same,EC50,D2L,> 10 µM
same,IC50,PDE3A,> 10 µM
same,IC50,Kv11.1 (hERG),> 30 µM
same,IC50,[2]; read-out: PMM IC50,32 µM
"N#Cc1ccc2nc(NC(=O)c3ccnc(C(F)(F)F)c3)n(CC(F)(F)F)c2c1 [Compound 44, O=C(c1ccnc(C(F)(F)F)c1)Nc2nc(ccc(C#N)c3)c3n2CC(F)(F)F]",eLogD,[1]; S1 Data,3.12
same,chromatographic logD,"[1]; experimental, pH 7.4",3.1
same,EC50,5-HT1A,> 10 µM
same,EC50,ETB,> 10 µM
same,IC50,Cav1.2 (L-type),> 10 µM
same,Mouse plasma stability,Plasma stability,111%
same,Plasma Stability,Plasma stability,110.80%
same,EC50,CHO,> 10 µM
same,EC50,D2L,> 10 µM
same,IC50,PDE3A,2.7 µM
same,IC50,Kv11.1 (hERG),> 30 µM
same,IC50,[2]; read-out: PMM IC50,4 µM
"N#Cc1ccc2nc(NC(=O)c3ccc(C(F)(F)F)nc3)n(CC(F)(F)F)c2c1 [Compound 45, O=C(c1ccc(C(F)(F)F)nc1)Nc2nc(ccc(C#N)c3)c3n2CC(F)(F)F]",eLogD,"[1]; experimental, pH 7.4",3.1
same,chromatographic logD,"[1]; pH 7.4, S1 Data",3.1
same,EC50,5-HT1A,> 10 µM
same,EC50,ETB,> 10 µM
same,IC50,Cav1.2 (L-type),> 10 µM
same,Plasma Stability,Plasma stability,135%
same,EC50,CHO,> 10 µM
same,EC50,D2L,> 10 µM
same,IC50,PDE3A,> 10 µM
same,IC50,Kv11.1 (hERG),> 30 µM
same,IC50,[2]; read-out: PMM IC50,8 µM
